# Source: publication PMC10555500, “Evaluation of the Antiproliferative Properties of CpRu Complexes Containing N-Methylated Triazaphosphaadamantane Derivatives” (Bioinorganic Chemistry and Applications, 2023)
# System: MCF-7 breast cancer cells
# Assay: MTT cytotoxicity assay, MCF-7 cells
# Format: cell-based, human
# Settings: 24 h incubation, average of at least three experiments (±SD)
# Protocol: The MDA-MB-231 and MCF-7 human breast cancer cells were purchased from ATCC. The MDA-MB-231 and MCF-7 cells were grown in Dulbecco's modified Eagles' medium (DMEM high glucose) (Capricorn Scientific) at 37°C in 5% CO2 supplemented with 10% fetal bovine serum (Capricorn Scientific). HDF cells were purchased from Merck and were grown in the fibroblast growth medium. All cells were adherent in monolayers and, upon confluence, were washed with phosphate buffer saline (PBS) and harvested by digestion with trypsin-EDTA 0.05% (v/v). The cells were suspended and transferred into new, sterile, culture flasks for maintenance or seeded in sterile test microplates for different assays. All cells were manipulated under aseptic conditions in a flow chamber.
# The cells were adherent in monolayers and, upon confluence, were harvested by digestion with trypsin. The cytotoxicity of the complexes against the tumour cells was assessed using the colorimetric assay MTT […], which evaluates the metabolic activity of viable cells. This assay measures the conversion of yellow tetrazolium into purple formazan by an active mitochondrial dehydrogenase in living cells. For this purpose, the cells (10–20 × 10^3 in 200 μL of the medium) were seeded into 96-well plates and incubated in a 5% CO2 incubator at 37°C. The cells were settled for 24 h followed by the addition of a dilution series of the complexes in a medium (200 μL). The complexes were first solubilized in 100% DMSO, given a 10 mM stock solution, and then in a medium within the concentration range of 0.1–100 µM. […] The cellular viability was evaluated by measuring the absorbance at 570 nm by using a microplate spectrophotometer. […]
# The cells were adherent in monolayers and, upon confluency, were harvested by digestion with trypsin. The cytotoxicity of the complexes against the tumour cells was assessed using the colorimetric assay MTT […], which evaluate the metabolic activity of viable cells. […]
structure (smiles),measurement,value
"CN1CN2CN(C)C[P]([Ru+2]([P](c3ccccc3)(c3ccccc3)c3ccccc3)[P](c3ccccc3)(c3ccccc3)c3ccccc3)(C1)C2.O=S(=O)([O-])C(F)(F)F.[Cl][Pd][Cl].c1cc[cH-]c1 [Compound 11, [RuCp(PPh3)2-µ-dmoPTA-1κP-2κ^2N,N′-PdCl2](CF3SO3)]",IC50,730 ± 110 nM
